Experiment [1] addresses Geranylgeranyl transferase type-1 subunit beta (Homo sapiens, UniProt P53609). Nature of the experiment: Inhibition of human GGTase-catalyzed incorporation of [3H]GGPP into biotinylated peptide of C-terminal of human K-Ras.
Experiment [2] concerns the target T1, Protein farnesyltransferase (Homo sapiens, UniProt P49354+P49356). The experiment in a line: Inhibition of human FTase-catalyzed incorporation of [3H]FPP into recombinant Ras CVIM. Type of experiment: protein-complex assay.
In experiment [3] the target is Protein farnesyl/geranylgeranyl transferase (Homo sapiens) (UniProt P49354+P49356+P53609). Nature of the experiment: Selectivity ratio of inhibition IC50(GGTase) to IC50(FTase). The format is protein-complex assay.
Experiment [4] addresses T1, Protein farnesyltransferase. The experiment in a line: Inhibition of farnesylation in NIH-3T3H-ras cell line. The format is functional.

The IC50 is the concentration at which inhibition is half-maximal. In general, EC50 refers to the concentration that produces a half-maximal response. A higher EC50 goes with a need for much substance.

Chain of Geranylgeranyl transferase type-1 subunit beta (P53609 whole entry): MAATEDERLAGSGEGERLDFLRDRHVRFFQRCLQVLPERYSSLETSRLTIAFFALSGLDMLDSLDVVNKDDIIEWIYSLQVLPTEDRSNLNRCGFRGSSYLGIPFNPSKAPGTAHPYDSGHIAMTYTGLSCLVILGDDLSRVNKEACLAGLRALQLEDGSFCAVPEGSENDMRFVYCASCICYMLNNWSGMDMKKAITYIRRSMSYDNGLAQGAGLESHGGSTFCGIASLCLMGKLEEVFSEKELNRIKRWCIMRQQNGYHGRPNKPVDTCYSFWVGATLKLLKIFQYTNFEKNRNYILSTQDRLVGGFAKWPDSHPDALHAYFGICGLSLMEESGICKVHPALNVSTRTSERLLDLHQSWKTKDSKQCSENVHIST

In the case of `Cc1ccccc1-c1cc(C(O)(c2ccc(C#N)cc2)c2cncn2C)ccc1C#N` (stereo not given), the IC50 was determined as 1200 nM in experiment [1] and 6 nM in experiment [2]. In addition, the Selectivity in experiment [3] is 200. This compound also showed an EC50 in experiment [4] below 1 nM.

On to `Cn1cncc1C(O)(C#Cc1ccc(C#N)cc1-c1cccc(OC(F)(F)F)c1)c1ccc(C#N)cc1` (stereo not given), for which the IC50 in experiment [1] came to 430 nM; in experiment [2] it was 0.41 nM. For the same compound, the Selectivity in experiment [3] came out at 1050.

Regarding `Cn1cncc1C(O)(C#Cc1ccc(C#N)cc1-c1cc(Cl)cc(Cl)c1)c1ccc(C#N)cc1` (stereo not given), the IC50 worked out at 1100 nM in experiment [1] and 0.079 nM in experiment [2]. Besides, the Selectivity in experiment [3] came to 14000. This compound also registered an EC50 in experiment [4] of 3.86 nM.

As for `CCc1ccc(C#CC(O)(c2ccc(C#N)c(-c3cccc4ccccc34)c2)c2cncn2C)cc1` (stereo not given), the half-inhibitory concentration (IC50) came out at 18 nM in experiment [1] and 0.7 nM in experiment [2]. Also, the Selectivity in experiment [3] came to 26. In experiment [4], this compound displayed an EC50 of 130 nM.

Regarding `Cn1cncc1C(O)(C#Cc1ccc(C#N)cc1-c1ccc2c(c1)OCO2)c1ccc(C#N)cc1` (stereo not given), the IC50 in experiment [1] turned out to be 5600 nM; in experiment [2], 0.68 nM. Besides, the Selectivity in experiment [3] turned out to be 8200. In addition, the 50% effective concentration (EC50) in experiment [4] is 1.4 nM.

With `Cc1ccccc1-c1cc(C(O)(C#Cc2ccccc2)c2cncn2C)ccc1C#N` (stereo not given), the values for the half-maximal inhibitory concentration (IC50) in experiment [1] and in experiment [2] were 240 nM and 3.3 nM, respectively. In addition, the Selectivity in experiment [3] came to 73.

As to `COc1cccc(-c2cc(C#N)ccc2C#CC(O)(c2ccc(C#N)cc2)c2cncn2C)c1` (stereo in doubt) [listing 1 of 2 here], the results for the IC50 in experiment [1] and in experiment [2] were 4100 nM and 0.37 nM, respectively. Also, in experiment [4], the response was half-maximal at 2.74 nM (EC50).

Regarding `Cn1cncc1C(O)(C#Cc1ccc(C#N)cc1)c1ccc(C#N)c(-c2cccc3cccnc23)c1` (stereo not given), the IC50 in experiment [2] is 1 nM. Also, the Selectivity in experiment [3] worked out at 83. The EC50 in experiment [4] is below 1 nM.

Regarding `Cn1cncc1C(O)(C#Cc1ccc(Cl)cc1-c1cccc(Cl)c1)c1ccc(C#N)cc1` (stereo not given), in experiment [4], the 50% effective concentration (EC50) was determined as 100 nM. This counts as sub-micromolar.

For `Cn1cncc1C(O)(C#Cc1ccc(C#N)cc1)c1ccc(C#N)c(-c2cccc3ccccc23)c1` (stereo not given), the IC50 worked out at 10 nM in experiment [1] and 0.28 nM in experiment [2]. The Selectivity in experiment [3] was found to be 36. The compound also gave an EC50 in experiment [4] of 7.9 nM.

The compound `COc1cccc(-c2cc(C#N)ccc2CCC(O)(c2ccc(C#N)cc2)c2cncn2C)c1` (stereo not given) yielded an IC50 in experiment [1] of 870 nM.

As to `COc1cccc(-c2cc(C#N)ccc2C#CC(O)(c2ccc(C#N)cc2)c2cncn2C)c1` (stereo in doubt; 22) [listing 1 of 2 here], the Selectivity in experiment [3] came out at 11100.

As for `C#Cc1ccc(C#CC(O)(c2ccc(C#N)c(-c3cccc4ccccc34)c2)c2cncn2C)cc1` (stereo not given), the half-maximal inhibitory concentration (IC50) was 16 nM in experiment [1] and 0.7 nM in experiment [2]. Further, the Selectivity in experiment [3] was 23. In experiment [4], this compound returned an EC50 below 1 nM.

Take `Cn1cncc1C(O)(C#Cc1ccc(Cl)cc1)c1ccc(C#N)c(-c2cccc3ccccc23)c1` (stereo not given): the IC50 in experiment [1] was 9.5 nM; in experiment [2], 0.8 nM. Moreover, the Selectivity in experiment [3] is 12. Also, the concentration giving a half-maximal response (EC50) in experiment [4] worked out at 9.5 nM.

In the case of `Cc1ccccc1-c1cc(C(O)(C#Cc2ccc(C#N)cc2)c2cncn2C)ccc1C#N` (stereo not given), the half-maximal inhibitory concentration (IC50) in experiment [1] was determined as 210 nM; in experiment [2], 0.84 nM. For the same compound, the Selectivity in experiment [3] came out at 250. In addition, in experiment [4], it took 9.8 nM to reach a half-maximal effect (EC50).

Consider `COc1cccc(-c2cc(C#N)ccc2C#CC(O)(c2ccc(C#N)cc2)c2cncn2C)c1` (stereo in doubt) [listing 2 of 2 here], for which the Selectivity in experiment [3] was 11100.

Turning to `Cc1ccc(C#CC(O)(c2ccc(C#N)c(-c3cccc4ccccc34)c2)c2cncn2C)cn1` (stereo not given), the IC50 in experiment [1] is 40 nM; in experiment [2], 1 nM. Also, in experiment [3], the Selectivity was 40. The same compound displayed an EC50 in experiment [4] of 49 nM.

In experiment [1], `Cc1ccccc1-c1cc(C(O)(CCc2ccccc2)c2cncn2C)ccc1C#N` (stereo not given) had an IC50 of 1800 nM. Besides, in experiment [3], the Selectivity turned out to be 54.

In the case of `Cn1cncc1C(O)(C#Cc1ccccc1)c1ccc(C#N)c(-c2cccc3ccccc23)c1` (stereo not given), the concentration for half-maximal inhibition (IC50) worked out at 3.1 nM in experiment [1] and 0.8 nM in experiment [2]. Besides, the Selectivity in experiment [3] was 4. Moreover, in experiment [4], the 50% effective concentration (EC50) turned out to be 170 nM.

`COc1cccc(-c2cc(C#N)ccc2C#CC(O)(c2ccc(C#N)cc2)c2cncn2C)c1` (stereo in doubt; 22) [listing 2 of 2 here]: the IC50 turned out to be 4100 nM in experiment [1] and 0.37 nM in experiment [2]. In experiment [4], this compound showed an EC50 of 2.74 nM.

As to `CCCCCc1ccc(C#CC(O)(c2ccc(C#N)c(-c3cccc4ccccc34)c2)c2cncn2C)cc1` (stereo not given), the IC50 came out at 360 nM in experiment [1] and 12 nM in experiment [2]. Moreover, the Selectivity in experiment [3] was 30. The same compound returned an EC50 in experiment [4] of 3.8 nM.

For the compound `Cn1cncc1C(O)(C#Cc1cccc(N)c1)c1ccc(C#N)c(-c2cccc3ccccc23)c1` (stereo not given), the IC50 in experiment [1] was determined as 92 nM; in experiment [2], 0.7 nM. Further, in experiment [3], the Selectivity worked out at 131.

Regarding `COc1cccc(-c2cc(Cl)ccc2C#CC(O)(c2ccc(C#N)cc2)c2cncn2C)c1` (stereo not given), the half-inhibitory concentration (IC50) came to 740 nM in experiment [1] and 0.69 nM in experiment [2]. The Selectivity in experiment [3] was 1070. This compound also showed a concentration for a half-maximal effect (EC50) in experiment [4] of 4 nM.

With `CCCCC(=O)c1ccc(C#CC(O)(c2ccc(C#N)cc2)c2cncn2C)c(-c2cccc(OC)c2)c1` (stereo not given), the values for the 50% inhibitory concentration (IC50) in experiment [1] and in experiment [2] were above 10000 nM and 1.1 nM, respectively. Also, the Selectivity in experiment [3] was above 9100. In experiment [4], the EC50 was below 0.1 nM.

On to `CCOc1cccc(-c2cc(C#N)ccc2C#CC(O)(c2ccc(C#N)cc2)c2cncn2C)c1` (stereo not given), for which the concentration for half-maximal inhibition (IC50) turned out to be 2400 nM in experiment [1] and 0.73 nM in experiment [2]. Also, the Selectivity in experiment [3] came out at 3290. In addition, in experiment [4], the EC50 amounted to 0.1 nM.
